# Patent US20210353624A1, “METHOD OF TREATING CANCER WITH TELOTRISAT OR A PRODRUG THEREOF” (TerSera Therapeutics LLC, priority 2020, published 2021)
# Where “and” joins values, the source holds several entries; their conditions need not be identical. Equal entries are not always repeated.
# Experiments:
# colon cancer (HT-29) = test: Cell confluence of tumor cell line grown with telotristat ethyl; type: cell-based; conditions: HT-29 cells; 0, 5, 15 and 30 μM telotristat ethyl; 24 to 96 hours; impact ranked between 94T778 and TFK-1
# Protocol: (§1) This example provides experiments assessing the effects of telotristat ethyl on three aggressive cancer cell lines—liposarcoma (94T778), colon cancer (HT-29), and cholangiocarcinoma (TFK-1)—and three “normal” cell lines—fallopian tube epithelium (FT240), ovarian surface epithelium (OSE22), and first trimester placental fibroblasts (FTP).
# (§2) The cells were grown with 0, 5, 15 and 30 μM telotristat ethyl, plated into four-chambered slides with an initial confluence of at least 30%, and cultured for 24 to 96 hours. At the end of each 24-hour period, cell density was measured with hematoxylin, and the presence of 5-HT was assessed by immunohistochemistry. Experiments were performed in triplicate. Cell confluence was determined, and the 5-HT expression was recorded as an H-score.
# liposarcoma (94T778) = test: as above; type: cell-based; conditions: 94T778 cells; 0, 5, 15 and 30 μM telotristat ethyl; 24 to 96 hours; confluence decreased progressively with concentration
# Protocol: as §1, §2
# [1] = tested on: normal cell lines: fallopian tube epithelium (FT240), ovarian surface epithelium (OSE22), first trimester placental fibroblasts (FTP); test: Cell confluence of normal cell lines grown with telotristat ethyl; type: cell-based; conditions: 0, 5, 15 and 30 μM telotristat ethyl, 24 to 96 hours
# Protocol: as §1, §2
# [2] = tested on: locally advanced or metastatic neuroendocrine tumors (NETs); test: Retrospective single arm chart review (TELEACE): tumor progression, PFS, tumor size; type: in vivo, human; set-up: patients with progression-free survival (without tumor progression or death) (%) / Progression-free survival: Patients without outcome (%): concentration or dose not given beside the values; conditions: for Difference in tumor size between pre and post-TE initiation, Estimate: longitudinal generalized linear regression (GEE), 95% CI (−16.1%, −0.2%), P=0.045, negative = decrease; for patients with progression-free survival (without tumor progression or death) (%) / patients without tumor progression (%): overall population
# From the text: This example provides a retrospective, single arm study of patients with locally advanced or metastatic neuroendocrine tumors (NETs) and documented carcinoid syndrome (CS). The patients received telotristat ethyl for at least 6 months. […] This example reports progression-free survival (PFS), time to tumor progression, changes in carcinoid syndrome (CS) symptoms, and indictors of overall health.
# Patients with poorly differentiated neuroendocrine tumors, mixed tumor types or conflicting clinical trial enrollment were excluded. Descriptive statistics, Kaplan-Meier and Chi-square tests were used to evaluate PFS, tumor progression, changes in CS symptoms, body weight and Eastern Cooperative Oncology Group (ECOG) performance status before and after telotristat ethyl initiation. Subgroup analyses were conducted in patients with the same pre- and post-telotristat ethyl background treatment.
# Adults with unresectable locally advanced or metastatic neuroendocrine tumors and evidence of carcinoid syndrome documented in their medical chart were eligible for inclusion if they had received telotristat ethyl for at least 6 months and had any additional carcinoid syndrome and neuroendocrine tumor treatment information available for at least six months after telotristat ethyl initiation or until death. The presence of carcinoid syndrome was based on the participating physician's assessment of information contained in the medical charts. Participating physicians were recruited by a professional recruiting organization (Dynata, Plano, Tex., USA) and had to have treated at least one eligible patient with telotristat ethyl in the past 12 months in order to participate. Eligible records had to have documented tumor size and tumor response assessments before and after telotristat ethyl initiation, including at least two radiological scans in the 12 months before telotristat ethyl and at least one scan after telotristat ethyl initiation. Patients with a histologically poorly differentiated neuroendocrine tumor based on grade (G3) or Ki67 index >20%, mixed tumor types according to physician notes, or documented enrollment in any clinical trial during the 6 months after telotristat ethyl initiation were excluded.
# Time to tumor progression was defined as the time from telotristat ethyl initiation to the first documented tumor progression in the medical chart. […] Progression-free survival (PFS) was defined as the time from telotristat ethyl initiation to tumor progression or death. […] Physician-assessed changes in body weight, Eastern Cooperative Oncology Group (ECOG) Performance Status, and CS symptoms including diarrhea, flushing, abdominal pain, nausea and ascites were abstracted from medical charts before and after telotristat ethyl initiation.
# In order to evaluate the effect of telotristat ethyl treatment on secondary clinical outcomes, analyses were conducted in the overall population and in a subgroup of patients who had the same documented non-telotristat ethyl neuroendocrine tumor treatment before and after telotristat ethyl initiation. Descriptive statistics summarized patient demographic and clinical characteristics, and changes in body weight and ECOG Performance Status after telotristat ethyl treatment initiation. Kaplan-Meier analyses estimated median time to tumor progression and median PFS. Chi-square test evaluated changes in documented CS symptoms (improved vs same/worsened) before and after telotristat ethyl initiation. All analyses were performed using SAS version 9.4 (SAS Institute, Cary, N.C., USA).
# A radiological scan performed immediately before telotristat ethyl initiation was evaluated. A radiological scan performed post-telotristat ethyl was also examined. Paired t-test was used to calculate P-value for tumor size. Statistical significance (P<0.001) was also confirmed using Wilcoxon signed rank test. […]
# [3] = Physician assessed outcomes in TELEACE subgroup with worsening tumor status at TE initiation; type: in vivo, human
# From the text: A follow-up analysis of real-world clinical practice experience with TE was initiated in patients with physician-documented worsening tumor status based on radiological reports. The analysis was directed to the subgroup of patients from the TELEACE study with worsening tumor status at the time of TE initiation. Baseline carcinoid syndrome (CS) symptoms, Eastern Cooperative Oncology Group (ECOG) performance status, and weight were compared after at least six months of TE treatment.
# A total of 33 patients (17%) in TELEACE had worsened tumor status at the time TE of initiation. The mean patient age was 60 years, with 58% female and 76% white. The majority of these patients had intermediate grade tumor (67%). Prior to TE initiation, 61% had received SSA treatment, and 33% had received other NET treatment, which included liver-directed therapy, surgery, chemotherapy, targeted therapy, and Peptide Receptor Radionuclide Therapy (PRRT). The average duration of TE treatment was 14±10.5 months. […] Additionally, a majority of patients had significant improvement/remained stable in CS symptoms, ECOG performance status, and weight after TE initiation (Table 6).
# [4] = 6 months after TE initiation, listed as TE
# [5] = 12 months after TE initiation, listed as TE
# [6] = treatment subgroup n=65, 12 months
# [7] = treatment subgroup n=65, 18 months
structure (smiles),measurement,setting,value
"CCOC(=O)[C@@H](N)Cc1ccc(-c2cc(O[C@H](c3ccc(Cl)cc3-n3ccc(C)n3)C(F)(F)F)nc(N)n2)cc1 [telotristat ethyl, (S)-ethyl 2-amino-3-(4-(2-amino-6-((R)-1-(4-chloro-2-(3-methyl-1H-pyrazol-1-yl)phenyl)-2,2,2-trifluoroethoxy)pyrimidin-4-yl)phenyl)propanoate]",cell confluence,colon cancer (HT-29),between these two
same,cell confluence,liposarcoma (94T778),most impacted
same,cell confluence,[1],minimally impacted
same,"Tumor size (cm) Change from baseline, Mean ± SD","[2]; N=200, P<0.001",−0.5 ± 1.8 cm
same,"Tumor size (cm) Post-TE initiation, Mean (IQR)","[2]; N=200, pre-TE 3.5 (2.3, 5.0)","3.0 (2.0, 4.8) cm"
same,"Tumor size (cm) Post-TE initiation, Mean ± SD","[2]; N=200, pre-TE 3.9 ± 2.2",3.4 ± 2.3 cm
same,patients with improved (responded completely or partially) tumor response post-TE initiation,[2]; among 33 patients with worsened (progressed) tumor response pre-TE initiation,45%
same,average (SD) tumor size reduction,"[2]; from scan immediately before TE initiation until last scan post-TE, P<0.001",0.5 (1.8) cm
same,"Difference in tumor size between pre and post-TE initiation, Estimate",[2],−8.5%
same,"Difference in tumor size between pre and post-TE initiation, Estimate",[2]; listed as TE,−8.5%
same,median progression-free survival,"[2]; overall population n=200, Kaplan-Meier, IQR 17.8, 39.8",23.7 months
same,median time to tumor progression,"[2]; overall population n=200, Kaplan-Meier, IQR 18.7, 39.8",39.8 months
same,patients with progression-free survival (without tumor progression or death) (%),[2]; 6 months after TE initiation,90% and 89.5%
same,patients without tumor progression (%),[2]; 6 months after TE initiation,92%
same,patients with progression-free survival (without tumor progression or death) (%),[2]; [4],89.5%
same,patients without tumor progression (%),[2]; [4],92.0%
same,patients with progression-free survival (without tumor progression or death) (%),[2]; 12 months after TE initiation,80% and 79.9%
same,patients without tumor progression (%),[2]; 12 months after TE initiation,87% and 86.8%
same,patients with progression-free survival (without tumor progression or death) (%),[2]; [5],79.9%
same,patients without tumor progression (%),[2]; [5],86.8%
same,patients with progression-free survival (without tumor progression or death) (%),[2]; 18 months after TE initiation,72.1%
same,patients without tumor progression (%),[2]; 18 months after TE initiation,78.3%
same,Tumor progression: Patients without outcome (%),"[2]; treatment subgroup n=65 (same background treatment pre/post TE), 6 months",100.0%
same,Progression-free survival: Patients without outcome (%),"[2]; treatment subgroup n=65, 6 months",96.9%
same,Progression-free survival: Patients without outcome (%),[2]; [6],87.5%
same,Tumor progression: Patients without outcome (%),[2]; [6],90.4%
same,Progression-free survival: Patients without outcome (%),[2]; [7],87.5%
same,Tumor progression: Patients without outcome (%),[2]; [7],90.4%
same,Diarrhea: Improved,"[3]; 33 patients with worsened tumor status at TE initiation, n = 26, P<0.001",88%
same,CS symptoms compared to baseline measures,"[3]; 33 patients with worsened tumor status, TE treatment 14±10.5 months",each patient experienced improvement in at least one CS symptom
same,Nausea: Remained the Same,"[3]; worsened tumor status subgroup, n = 4",20%
same,Nausea: Improved,"[3]; worsened tumor status subgroup, n = 4, P=0.432",80%
same,Abdominal pain: Remained the Same,"[3]; worsened tumor status subgroup, n = 8",11%
same,Abdominal pain: Improved,"[3]; worsened tumor status subgroup, n = 8, P=0.020",89%
same,Flushing: Remained the Same,"[3]; worsened tumor status subgroup, n = 14",18%
same,Flushing: Improved,"[3]; worsened tumor status subgroup, n = 14, P=0.008",82%
same,Diarrhea: Remained the Same,"[3]; worsened tumor status subgroup, n = 26",12%
same,Weight: Remained the Same,"[3]; worsened tumor status subgroup, n = 31",55%
same,Weight: Improved,"[3]; worsened tumor status subgroup, n = 31, P=0.017",32%
same,ECOG score: Remained the Same,"[3]; worsened tumor status subgroup, n = 33",73%
same,ECOG score: Improved,"[3]; worsened tumor status subgroup, n = 33, P<0.001",24%
